Results: a melting point compilation (Tetko et al.; mined from patent text by program, amines drawn as free bases though some values may be those of a salt)

Row | melting point | Compound
1 | 270 to 273 °C | O=C1Nc2ccccc2C1c1nc(Cl)nc2nn(C3CCCC3)cc12 (stereo not given)
2 | 272 to 274 °C | CN(C)Cc1ccc(-c2cc3c(Nc4ccc(OCc5ccccc5)cc4)ncnc3[nH]2)cc1
3 | 164 to 166 °C | CC(O)(C(=O)Nc1ccc(S(=O)(=O)c2ccccc2)cc1)C(F)(F)F (stereo not given)
4 | 206 to 208 °C | COC(=O)c1cc(I)ccc1NC=C1C(=O)OC(C)(C)OC1=O
5 | 266 °C | CCCc1nc(C)c2c(=O)[nH]c(N)nn12
6 | 280 to 281 °C | O=c1[nH]c2ccc(-c3cccc([N+](=O)[O-])c3)cc2o1
7 | 145 to 146 °C | Cc1cc(-n2nc(C(F)F)cc2-c2ccc(S(C)(=O)=O)cc2)ccc1Cl
8 | 267 to 269 °C | O=C1C(=O)c2ccccc2C2=C1SCC1(CCN(C(=O)c3ccncc3)CC1)O2
9 | 121 to 123 °C | CN(CCN(C)C1=C(O)C(=O)c2ccccc2C1=O)Cc1ccccc1
10 | 208 °C | Cc1oncc1C(=O)N1CCN(c2ccc(NC(=O)c3cnn(-c4ccc(F)cc4)c3C)cc2C#N)CC1
11 | 159 to 160 °C | CC(C)(C)OC(=O)N(C(=O)OC(C)(C)C)c1c(C#N)csc1C(=O)O
12 | 107 to 109 °C | CC(CCc1ccc(C(C)C(=O)O)cc1)C(=O)O (stereo not given)
13 | 99 to 99.5 °C | CCN(CC)CCOc1cccc2c1c1cc(Cl)ccc1n2Cc1ccc(F)cc1
14 | 89 to 90 °C | COC(=O)COc1c(Cl)cc(C(=O)CBr)cc1Cl
15 | 155 to 158 °C | Nc1csc2ccc([N+](=O)[O-])cc12
16 | 62 to 64 °C | CC(=NO)C(C)(C)NCC(O)CNC(C)(C)C(CCn1ccnc1[N+](=O)[O-])=NO (stereo not given)
17 | 222 °C | NS(=O)(=O)c1ccc(N2CCN(CCC3=CCCc4ccccc43)CC2)cc1
18 | 143 to 145 °C | CC(=O)OCc1nc2c([N+](=O)[O-])cc(Br)cc2n1C
19 | 115 °C | COCC(C#N)=Cc1cc(OC)c2c(c1)OCO2
20 | 130 to 131 °C | Cc1cc(SCc2ccc(OC3CCc4cc(Cl)ccc43)cc2)ccc1OCC(=O)O (stereo not given)
21 | 198 to 202 °C | N#Cc1ccc(-c2ccc(S(=O)(=O)NCc3ccncc3)cc2)cc1
22 | 96 to 97 °C | Fc1ccc(F)c(CC2CCN([C@H]3CC[C@H](c4ccc5c(c4)OCO5)CC3)CC2)c1
23 | 104 °C | COc1csc(C=CC(=O)c2ccccc2)c1
24 | 109 to 111 °C | COc1cc(-c2cc(=O)c3c(OC)c(OC)c(OC)c(OC)c3o2)ccc1OCc1ccccc1

Row | melting point | Compound
25 | 94.5 to 95.5 °C | COc1cc(NC(=O)OC(C)(C)C)c(Cl)c(OC)c1
26 | 153 to 154 °C | CCN(CC)Cc1nc2cc(OC)c(OC)cc2c(-c2ccc(OC)c(OC)c2)c1C(=O)CC(C)C
27 | 128 to 130 °C | Cc1cc(C)c2c3ccccc3c(=O)n(CCN(C)C)c2n1
28 | 203 to 204 °C | N#Cc1cc(C#N)cc(C=O)c1
29 | 168 to 169 °C | COc1ccc2c(c1OC)C(=O)c1c-2c(N2CCNCC2)nc2ccc(Cl)cc12
30 | 162 to 164 °C | O=C(C=Cc1ccc(N2CCCC2)cc1)c1ccc2c(c1)CCC2
31 | 248 °C | O=C(NC1CCOCC1)c1ccc(-c2cc(-c3c[nH]nc3-c3ccccn3)ccn2)cc1
32 | 143 to 145 °C | Cc1ccc(N2CCN(CCCc3ccc(C4CCC(=O)N4)cc3)CC2)cc1 (stereo not given)
33 | 87 °C | COc1ccc(C(=O)c2ccccc2)cc1Cl
34 | 140 to 144 °C | O=C(c1cccs1)c1cnn2c(-c3cccc(NCc4ccoc4)c3)ccnc12
35 | 115 to 116 °C | Cc1ccc(-c2cc(Cl)c3ccccc3n2)cc1Cl
36 | 180 to 185 °C | CC(C)c1cc2n(Cc3ccccc3)cc(C(=O)O)c(=O)n2n1
37 | 92 to 93.5 °C | O=C(OCN1C(=O)C2CCCN2S1(=O)=O)c1c(Cl)cccc1Cl (stereo not given)
38 | 237 to 238 °C | Nc1ccc(S(=O)(=O)c2cc(C3=CCCCC3)nc(N3CCCC3)c2)cc1
39 | 201 °C | COc1ccccc1NC(=O)Nc1nc(N(CCC(=O)O)Cc2cccc(C)c2)nc(N2CCc3ccccc32)n1
40 | 104 to 108 °C | CN1CC(N(C(=O)c2ccc(Cl)cc2)c2ccccc2)CN1C
41 | 174 to 175 °C | Cc1nc(-c2ccc(CN3C(=O)C4(COc5cc6c(cc54)OCCO6)c4ccccc43)cc2)no1 (stereo not given)
42 | 140 °C | Cn1cncc1C(O)c1ccc2nc(Cl)nc(-c3cccc(Cl)c3)c2c1 (stereo not given)
43 | 109 to 112 °C | COCC(C)Oc1cc(Oc2ccc(S(C)(=O)=O)cc2)cc2cc(C3=NCC(C(OC)OC)S3)[nH]c12 (stereo not given)
44 | 210 to 212 °C | CN1CCN(c2cccc3c2C[C@H](NC(=O)c2ccc(N4CCOCC4)cc2)CO3)CC1
45 | 178 to 180 °C | CCc1cc(C(=O)c2ccccc2Cl)c(-n2c(C)nnc2CNC(=O)Nc2cccc(C(=O)O)c2)s1
46 | 266 to 268 °C | Cc1ccc(-c2cc3cc(C4=NNC(=O)CC4)ccc3[nH]2)cc1
47 | 214 to 216 °C | O=C1CCC(N2C(=O)c3cccc(Nc4ccccc4)c3C2=O)C(=O)N1 (stereo not given)
48 | 150 to 151 °C | O=C(O)C1Cc2c([nH]c3ccccc23)CN1C(=S)SC1CCCCC1 (stereo not given)

Row | melting point | Compound
49 | 186 to 187 °C | O=C1CCCc2ccc(OCCCCN3CCN(c4cccc5c4OCCC5)CC3)nc2N1
50 | 56 to 59 °C | CCCCCCCCCCCC(=O)NC(C)c1c[nH]c(CCCCCCCCCCC)n1 (stereo not given)
51 | 210 °C | O=C(Nc1ccccc1)NC1CCN2CCc3ccccc3C2C1 (stereo not given)
52 | 57 to 59 °C | CS(=O)(=O)Nc1ccc(C(O)CNC2CCN(c3ccc(CC4SC(=O)NC4=O)cc3)CC2)cn1 (stereo not given)
53 | 207 to 208 °C | O=Cc1c(Cl)n(C2OC(CF)C(O)C2O)c2cc(Cl)c(Cl)cc12 (stereo not given)
54 | 140 to 142 °C | CCCCCCCCC1C=CC(C(=O)c2ccc(C(=O)O)o2)=C2N=C3CCCCC3=C21 (stereo not given)
55 | 118 to 119 °C | C=Cc1c(NC(=O)c2cn(C)nc2C(F)(F)F)cccc1C(C)(C)C
56 | 130 to 132 °C | COC(=O)N1C(=S)NC(C)=C(C(=O)OC(C)C)C1c1cccc([N+](=O)[O-])c1 (stereo not given)
57 | 114 °C | CCCCOc1ccc(COC(=O)C(=O)OCc2ccc(OCCCC)cc2)cc1
58 | 183 °C | Cc1ccc2c(c1)c(N1CCN(C(=O)c3cccs3)CC1)c(C#N)c(=O)n2Cc1ccccc1
59 | 162 to 163 °C | O=C(O)[C@H](CCCCO)N1C(=O)c2ccccc2C1=O
60 | 142 to 145 °C | CCc1ccc(Nc2c(C(=O)NOCCO)ccc(F)c2F)c(Cl)c1
61 | 143 to 145 °C | CC(C(=O)O)c1cccc(Sc2ccccc2Cl)c1O (stereo not given)
62 | 170 °C | CNc1cc2c(cc1[N+](=O)[O-])OCO2
63 | 157 to 159 °C | Cc1nc(Cl)c2c(C)cn(-c3c(Cl)cc(Br)cc3Br)c2n1
64 | 180 to 181 °C | Cc1cc(Cl)cc(C(=O)NC(C)C2CC2)c1NC(=O)c1cc(Br)nn1-c1ccccc1Cl (stereo not given)
65 | 252 °C | O=C(Nc1cccc(S(=O)(=O)NC2CC2)c1)c1cnn2c(C(F)F)cc(-c3ccc(C(F)(F)F)cc3)nc12
66 | 256 to 257 °C | CCCn1c(=O)c2[nH]c(/C=C/c3cccc([N+](=O)[O-])c3)nc2n(CCC)c1=O
67 | 198 to 200 °C | Nc1c(F)c(N2CC[C@@H](C3(NCCO)CC3)C2)c(F)c2c1c(=O)c(C(=O)O)cn2[C@@H]1C[C@@H]1F
68 | 109 to 112 °C | CC(=O)n1cnc2c(CBr)cccc21
69 | 162 °C | Cc1ccc(-c2c(NS(=O)(=O)c3ccc(C(C)(C)C)cc3)ncnc2OCCOc2ncc(SC(C)C)cn2)cc1
70 | 65 °C | CCc1ccc(-c2ccc(CCc3ccc(C)cc3)cc2)c(F)c1
71 | 147 °C | CC(C)c1nc(-c2ccc(F)cc2)c(C=O)c(C(C)C)c1CO
72 | 235 to 237 °C | CC1CN(N=Cc2cccnc2)C(=O)NN1 (stereo not given)

Row | melting point | Compound
73 | 158 to 160 °C | CN1CC(=O)N(c2ccc3c(c2)CCC3)C1=S
74 | 97 °C | N#CCC1CC(=O)N(c2ccc(F)cc2)C1=O (stereo not given)
75 | 107 to 108 °C | CCC(CC)COc1c(-c2ccc(S(C)(=O)=O)cc2)cnn(-c2ccc(F)cc2)c1=O
76 | 90 to 92 °C | CN1CCN(c2ccc(C(=O)NCCCCCCCCCO[N+](=O)[O-])cn2)CC1
77 | > 250 °C | Cc1cc(-c2ccc(C(F)(F)F)cc2)nc(-c2ccnc(-c3cccc(S(N)(=O)=O)c3)n2)c1
78 | 159 to 160 °C | Cc1c(C)c2c(c(C)c1NS(C)(=O)=O)CC(C)(C)O2
79 | 295 to 297 °C | Cn1c(=O)c(-c2ccc(Cl)cc2Cl)cc2c3cc(-c4coc(N)n4)ccc3n(C)c21
80 | 116 to 117 °C | CON=Cc1cc(=O)c(OCc2ccccc2)c(C(=O)c2ccc(Cc3ccc(F)cc3)o2)o1
81 | 100 to 102 °C | O=C(C=Cc1cccnc1)NCCCOC1CCN(Cc2ccccc2)CC1
82 | 71 to 72 °C | Cc1cc(N)c(C(=O)OC(C)C)cc1Oc1ccc(OC(F)(F)F)cc1
83 | 145 to 147 °C | Cc1ccc(COc2cccnc2NC(=S)Nc2ccc(Cl)cc2)cc1
84 | 155 to 156 °C | COc1ccccc1Nc1cc(C(=O)Nc2ccccc2)ccc1OC
85 | 115 to 117 °C | CCCCNS(=O)(=O)c1ccc(OC)c(NC(C)=O)c1
86 | > 270 °C | NC(=O)NCNC(N)=O
87 | > 300 °C | O=C(O)c1cn(C2CC2)c2nc(N3Cc4ccc(CO)cc4C3)c(F)cc2c1=O
88 | 62 to 66 °C | COCCOC(=O)C1=C(C)NC(C)=C(C(=O)OCCN2CCN(C(c3ccccc3)c3ccccc3)CC2)C1c1cccc([N+](=O)[O-])c1 (stereo not given)
89 | 149 to 150 °C | CC(C)(C)COc1ccc(NC(=O)c2cnn(-c3ccc(F)cc3)c2Cl)cc1C#N
90 | 157 to 158 °C | CC(C)c1cccc2c1CC(C(=O)O)SCC2=O (stereo not given)
91 | 222 to 224 °C | CSCCOc1ccc(-c2ccc3c(c2)C=C(C(=O)Nc2ccc(CN(C)C4CCOCC4)cc2)CCS3(=O)=O)cc1
92 | 157 to 159 °C | COc1ccc2c(c1OCc1ccccc1)CC(C(=O)O)N(C(=O)C(c1ccccc1)c1ccccc1)C2 (racemic)
93 | 221 °C | N#Cc1cc2c(c(C(=O)O)c1)OC(c1ccccc1)(c1ccccc1)O2

Row | Compound | melting point
94 | Cc1cccc2c(=O)[nH]c(CC3CN4CCC3CC4)nc12 (stereo not given) | 187 to 188 °C
95 | CCc1c(C(=O)c2cccc(Cl)c2Cl)c2cccc(Br)c2n1CCCN(C)S(C)(=O)=O | 111 °C
